Measured values: ChEMBL document CHEMBL1201862, “PubChem BioAssay data set” (2004)
Active and inactive are the calls of the source.

Key:
BJ [1] = assay: cytotoxicity toward Ras-transformed BJeLR fibroblasts, dose response, cell-based, alamar blue fluorescence, cherrypicked samples (AID 2631); format: functional; conditions: Homo sapiens;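 note: confirmatory dose-response assay in RAS-dependent BJ fibroblasts engineered with TERT, LT and ST, with cytotoxicity read by fluorescence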
[2] = Luminescence Cell-Based Dose Retest to Confirm Inhibitors of Cancer Stem Cells. [Related pubchem assays (depositor defined):AID2717, AID2721]; format: functional; conditions: Homo sapiens
[3] = target: Glutathione S-transferase omega-1 (Homo sapiens, UniProt P78417); assay: GSTO1 inhibitor potency, recombinant enzyme, late-stage follow-up, biochemical, SE-Rh probe, in-gel fluorescence, powder samples (AID 463081); format: functional
Paired box protein Pax-8 = Paired box protein Pax-8 (Homo sapiens, UniProt Q06710); assay: inhibitors of PAX8-driven TPO luciferase reporter, dose response, RMG-I cells, cherry-pick (AID 687027); format: functional, cell-based;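 note: luciferase reporter driven by Pax8 target thyroperoxidase promoter measured by SteadyGlo luminescence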
BJ [4] = assay: cytotoxicity toward BJ-TERT-LT-ST fibroblasts, dose response, cell-based, RAS-independent, luminescence (AID 1935); format: functional; conditions: Homo sapiens;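 note: BJ fibroblasts immortalized with TERT plus LT and ST oncogenes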
Protein RecA = target: T1, Protein RecA (Mycobacterium tuberculosis, UniProt P9WHJ3); assay: Fluorescence Cell-Free Homogeneous Dose Retest to Identify Inhibitors of RecA-Intein Splicing Activity. [Related pubchem assays (depositor defined):AID2097, AID2223, AID489010, AID492950]; format: functional
T1 sequence (P9WHJ3 whole entry): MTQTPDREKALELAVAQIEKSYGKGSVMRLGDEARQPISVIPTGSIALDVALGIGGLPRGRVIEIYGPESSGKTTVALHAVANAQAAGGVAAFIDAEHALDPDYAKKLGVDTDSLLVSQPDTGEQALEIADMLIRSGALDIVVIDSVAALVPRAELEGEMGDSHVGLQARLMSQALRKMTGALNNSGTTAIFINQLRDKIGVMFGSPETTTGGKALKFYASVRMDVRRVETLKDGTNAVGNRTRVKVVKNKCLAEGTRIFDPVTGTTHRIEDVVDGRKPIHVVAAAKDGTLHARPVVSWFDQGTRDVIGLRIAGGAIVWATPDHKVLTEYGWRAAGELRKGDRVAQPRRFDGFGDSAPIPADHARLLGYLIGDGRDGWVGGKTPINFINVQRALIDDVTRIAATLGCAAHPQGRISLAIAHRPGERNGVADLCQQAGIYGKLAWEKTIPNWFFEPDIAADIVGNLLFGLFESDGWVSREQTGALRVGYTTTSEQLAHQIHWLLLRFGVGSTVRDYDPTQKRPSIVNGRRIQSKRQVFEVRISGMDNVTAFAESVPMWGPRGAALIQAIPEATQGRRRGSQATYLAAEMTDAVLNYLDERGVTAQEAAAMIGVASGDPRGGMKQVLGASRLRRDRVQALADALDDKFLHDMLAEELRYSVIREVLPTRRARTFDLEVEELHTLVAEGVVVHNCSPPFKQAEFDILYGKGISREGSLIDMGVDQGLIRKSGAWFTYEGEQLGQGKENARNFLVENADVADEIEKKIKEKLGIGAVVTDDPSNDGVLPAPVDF

H4 = assay: Luminescence Cell-Based Dose Response HTS to Identify Activators of 5'UTR Stem-Loop Driven Prion Protein mRNA Translation in H4 Neuroglioblastoma Cells. [Related pubchem assays: 1829 (Project Summary), 1814 (Primary HTS)]; format: functional; conditions: Homo sapiens
BJ [5] = assay: cytotoxicity toward BJ-TERT fibroblasts, dose response, cell-based, RAS-independent, luminescence (AID 1933); format: functional; conditions: Homo sapiens
[6] = Luminescence Cell-Based Dose Confirmation HTS to Identify Activators of 5'UTR Stem-Loop Driven Alpha-Synuclein mRNA Translation in H4 Neuroglioblastoma Cells. [Related pubchem assays: 1829 (Project Summary), 1814 (Primary HTS)]; format: functional
BJ [7] = assay: cells; format: functional, cell-based; conditions: Homo sapiens
[8] = cytotoxicity toward DRD oncogenic fibroblasts, dose response, cell-based, non-viral oncogenic, luminescence (AID 1934); format: functional; conditions: Homo sapiens
[9] = non-specific cell cytotoxicity, dose response, cytotoxicity control for PAX8 inhibitor project, plate reader, dry powder samples (AID 743021); format: functional, cell-based
[10] = target: T2, Replicative DNA helicase DnaB (Mycobacterium tuberculosis, UniProt P9WMR3); assay: DnaB intein splicing inhibitors, dose response, biochemical, cell-free fluorescence (AID 449749); format: functional
T2 sequence (P9WMR3 whole entry): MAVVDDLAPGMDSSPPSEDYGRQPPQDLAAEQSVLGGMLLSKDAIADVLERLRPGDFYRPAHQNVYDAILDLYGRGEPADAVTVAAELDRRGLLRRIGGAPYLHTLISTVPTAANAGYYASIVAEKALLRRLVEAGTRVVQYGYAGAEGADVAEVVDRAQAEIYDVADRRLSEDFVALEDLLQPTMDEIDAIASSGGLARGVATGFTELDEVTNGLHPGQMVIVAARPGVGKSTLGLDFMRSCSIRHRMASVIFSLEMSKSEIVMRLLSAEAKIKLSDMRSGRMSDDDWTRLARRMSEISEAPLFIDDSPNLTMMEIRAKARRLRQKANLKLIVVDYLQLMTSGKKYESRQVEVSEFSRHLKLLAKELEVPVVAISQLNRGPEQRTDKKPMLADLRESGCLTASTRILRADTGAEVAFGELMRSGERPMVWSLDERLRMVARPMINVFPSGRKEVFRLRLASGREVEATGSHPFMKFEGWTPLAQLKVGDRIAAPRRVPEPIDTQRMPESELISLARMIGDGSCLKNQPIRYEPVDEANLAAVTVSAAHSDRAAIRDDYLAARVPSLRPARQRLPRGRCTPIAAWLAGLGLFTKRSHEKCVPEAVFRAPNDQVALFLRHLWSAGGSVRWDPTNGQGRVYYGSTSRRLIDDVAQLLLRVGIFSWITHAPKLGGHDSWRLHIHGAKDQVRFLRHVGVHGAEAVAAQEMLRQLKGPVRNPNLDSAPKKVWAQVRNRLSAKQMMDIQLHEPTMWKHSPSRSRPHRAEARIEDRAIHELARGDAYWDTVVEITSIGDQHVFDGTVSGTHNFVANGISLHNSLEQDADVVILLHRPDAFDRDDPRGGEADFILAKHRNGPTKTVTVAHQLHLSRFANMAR

[11] = Luminescence Cell-Based Dose Response HTS to Identify Activators of Luciferase Translation or Activity in H4 […] Cells. [Related pubchem assays: 1829 (Project Summary), 1814 (Primary HTS)]; format: functional
[12] = target: DNA dC->dU-editing enzyme APOBEC-3A (Homo sapiens, UniProt P31941); assay: APOBEC3A DNA deaminase inhibitors, dose response, biochemical (AID 504722); format: functional
[13] = target: DNA dC->dU-editing enzyme APOBEC-3G (Homo sapiens, UniProt Q9HC16); assay: Dose Response confirmation of small molecule APOBEC3G DNA Deaminase Inhibitors via a fluorescence-based single-stranded DNA deaminase assay. [Related pubchem assays (depositor defined):AID493012, AID493028]; format: functional
Coagulation factor XII = target: T3, Coagulation factor XII (Homo sapiens, UniProt P00748); assay: FXIIa inhibitor potency, concentration-response, biochemical (AID 716); format: functional
T3 sequence (P00748 whole entry): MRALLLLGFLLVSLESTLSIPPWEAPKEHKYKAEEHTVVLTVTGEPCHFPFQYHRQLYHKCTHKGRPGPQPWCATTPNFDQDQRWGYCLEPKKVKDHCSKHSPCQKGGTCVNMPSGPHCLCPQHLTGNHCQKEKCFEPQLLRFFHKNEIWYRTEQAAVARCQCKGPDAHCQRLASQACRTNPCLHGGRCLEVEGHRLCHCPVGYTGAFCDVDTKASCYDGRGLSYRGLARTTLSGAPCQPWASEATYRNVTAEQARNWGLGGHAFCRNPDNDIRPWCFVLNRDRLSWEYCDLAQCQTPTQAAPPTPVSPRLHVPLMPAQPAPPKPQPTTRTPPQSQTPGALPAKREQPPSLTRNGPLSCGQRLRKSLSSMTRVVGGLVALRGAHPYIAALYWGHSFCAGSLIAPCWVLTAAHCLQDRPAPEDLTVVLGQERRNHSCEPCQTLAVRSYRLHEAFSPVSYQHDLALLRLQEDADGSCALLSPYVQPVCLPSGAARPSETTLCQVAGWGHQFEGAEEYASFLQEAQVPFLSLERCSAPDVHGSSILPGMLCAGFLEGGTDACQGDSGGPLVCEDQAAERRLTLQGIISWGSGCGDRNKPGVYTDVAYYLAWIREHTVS

Trypanosoma cruzi = assay: growth inhibition of intracellular Trypanosoma cruzi, dose response, cell-based, plate reader, dry powder, set 3 (AID 493197); format: functional
[14] = cytotoxicity in NIH/3T3 mouse fibroblasts, dose response, cytotoxicity control, cell-based, mouse embryonic fibroblasts, dry powder, set 2 (AID 493247); format: functional; conditions: Fibroblast

Chain of DNA dC->dU-editing enzyme APOBEC-3A (P31941 whole entry): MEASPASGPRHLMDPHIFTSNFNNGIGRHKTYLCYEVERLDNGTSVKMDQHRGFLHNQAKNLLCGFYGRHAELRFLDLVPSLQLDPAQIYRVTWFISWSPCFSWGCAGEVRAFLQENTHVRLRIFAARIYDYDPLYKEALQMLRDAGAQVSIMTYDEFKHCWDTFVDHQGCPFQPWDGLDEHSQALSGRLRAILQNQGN
Chain of Paired box protein Pax-8 (Q06710 whole entry): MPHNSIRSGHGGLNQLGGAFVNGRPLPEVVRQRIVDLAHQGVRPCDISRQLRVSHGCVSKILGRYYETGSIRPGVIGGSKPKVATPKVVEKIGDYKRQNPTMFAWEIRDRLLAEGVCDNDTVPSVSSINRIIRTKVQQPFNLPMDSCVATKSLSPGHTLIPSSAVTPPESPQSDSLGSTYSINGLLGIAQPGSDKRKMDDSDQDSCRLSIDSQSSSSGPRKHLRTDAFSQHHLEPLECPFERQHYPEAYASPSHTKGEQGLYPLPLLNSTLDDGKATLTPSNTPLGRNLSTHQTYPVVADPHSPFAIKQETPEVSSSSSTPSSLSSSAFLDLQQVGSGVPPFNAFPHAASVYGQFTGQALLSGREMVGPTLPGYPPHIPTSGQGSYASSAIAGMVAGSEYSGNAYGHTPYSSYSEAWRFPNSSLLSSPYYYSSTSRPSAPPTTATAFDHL
Chain of Glutathione S-transferase omega-1 (P78417 whole entry): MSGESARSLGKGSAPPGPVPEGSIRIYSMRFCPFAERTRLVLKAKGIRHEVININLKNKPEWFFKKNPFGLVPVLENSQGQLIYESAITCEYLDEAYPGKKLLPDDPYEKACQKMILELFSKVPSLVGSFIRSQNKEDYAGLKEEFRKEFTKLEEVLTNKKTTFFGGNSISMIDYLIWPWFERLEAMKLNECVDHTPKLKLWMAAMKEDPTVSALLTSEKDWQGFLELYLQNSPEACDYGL
Chain of DNA dC->dU-editing enzyme APOBEC-3G (Q9HC16 whole entry): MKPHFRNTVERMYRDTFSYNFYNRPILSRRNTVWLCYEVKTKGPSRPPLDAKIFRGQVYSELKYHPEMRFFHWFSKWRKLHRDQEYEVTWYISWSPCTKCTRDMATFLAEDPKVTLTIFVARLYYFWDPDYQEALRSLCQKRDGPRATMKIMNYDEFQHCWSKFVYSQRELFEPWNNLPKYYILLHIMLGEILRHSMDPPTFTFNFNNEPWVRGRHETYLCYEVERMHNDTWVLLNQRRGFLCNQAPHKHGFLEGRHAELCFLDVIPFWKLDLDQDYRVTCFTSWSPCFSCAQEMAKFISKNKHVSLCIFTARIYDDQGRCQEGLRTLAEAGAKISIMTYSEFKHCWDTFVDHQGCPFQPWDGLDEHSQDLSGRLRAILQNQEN

## O=C(NC1CCCCC1)C(c1cccnc1)N(C(=O)CCl)c1ccc(F)cc1 (centres undefined)
BJ [1]
  EC50: 0.535 µM (active)
[2]
  AC50: 1.54 µM (active)
[3]
  IC50: 0.054 µM (active)
Paired box protein Pax-8
  AC50: 1.43 µM (active)
BJ [4]
  EC50: 7.25 µM (active)
Protein RecA
  EC50: 0.816 µM (active)
H4
  EC50: > 120 µM (not active)
BJ [5]
  EC50: 1.3 µM (inconclusive)
[6]
  EC50: > 120 µM (not active)
BJ [7]
  EC50: 5.32 µM (inconclusive)
[8]
  EC50: 2.48 µM (active)
[9]
  AC50: 7.37 µM (active)
[10]
  AC50: 5.76 µM (active)
[11]
  EC50: 10.1 µM (active)

## Cc1ccc(-n2c(-c3ccco3)n[nH]c2=S)cc1
[12]
  IC50: > 100 µM (inactive)
[13]
  IC50: 4.57 µM (active)

## COc1ccc2oc(C)c(C(=O)Cn3ccnc3)c2c1
Coagulation factor XII
  IC50: > 50 µM (inactive)

## O=C(CCC(=O)Nc1ccccc1)N/N=C/c1ccc([N+](=O)[O-])o1
Trypanosoma cruzi
  AC50: 0.125 µM (active)
[14]
  AC50: 5.35 µM (active)
